Source: US20210032651A1, “IMPROVEMENT OF HERBICIDE TOLERANCE TO HPPD INHIBITORS BY DOWN-REGULATION OF PUTATIVE 4-HYDROXYPHENYLPYRUVATE REDUCTASES IN SOYBEAN” (BASF SE, priority 2017, published 2021)

Test system: soybean T1 plants transformed with pMLS0519 or pCPE825
Experiment: Field trial of the T1 generation, herbicide tolerance
Type: in vivo
Details: Puerto Rico, pMLS0519 and pCPE825 the most effective of the constructs tested

For `CS(=O)(=O)c1cc(C(F)(F)F)ccc1C(=O)c1cnoc1C1CC1` [isoxaflutole, (5-cyclopropyl-4-isoxazolyl)[2-(methylsulfonyl)-4-(trifluoromethyl)phenyl]methanone], the “tolerance in field trial” value was “good tolerance”.
